Assay results: publication PMC12081870 (Communications Biology, 2025)

Experiments:
[1] = system: actin; experiment: TIRF assay, actin filament growth (elongation) rate; assay type: biochemical, rabbit; details: 0.5 µM actin, vs actin only
Procedure: (§1) Actin filament growth rate assays. Total Internal Reflection microscopy (TIRFm) was performed using a method modified from[58] using purified rabbit muscle actin and Alexa488 actin (Cytoskeleton, Inc) at a 4:1 ratio. Glass coverslips (Deckgläser) were cleaned using a modification of the method described. Briefly, coverslips were rinsed with gentle agitation in acetone (30 min), then water (5 min) then cleaned in Piranha solution (13 ml concentrated sulphuric acid and 6 ml hydrogen peroxide) for 90 min before rinsing with distilled water and ethanol, drying and coating with 1 mg/ml mPEG silane MW 2000 (Layssan Bio). TIRF reaction buffers 10× KMEI, GOC mixture, and methyl cellulose (400 cP, Sigma) were prepared in advance. 10× KMEI buffer (500 mM KCl, 100 mM Imidazole (pH 7.0), 10 mM MgCl2, 10 mM EGTA (pH 7.0)) was filtered through a sterile syringe-filter device (0.22 μm, Thermo Fisher Scientific) and stored at room temperature. GOC mixture was prepared by dissolving 20 mg of Catalase (Calbiochem) and 100 mg of Glucose-oxidase in 10 ml cold water. Undissolved particles were cleared by ultracentrifugation and 50 μl aliquots from the upper 90% of the supernatant were stored at −20 °C. 50 ml of 2% methyl cellulose was prepared by dissolving 1 g methylcellulose in 25 ml of Milli-Q water preheated to 65 °C, before adding 25 ml of room temperature water and rotating overnight at 4 °C. […]

[2] = system: Las17-GFP and Arc15-mCherry; experiment: Dual-reporter lifetimes, Las17-GFP and Arc15-mCherry co-localisation; assay type: cell-based, Saccharomyces cerevisiae; details: Las17-GFP / Arc15-mCherry dual-label strain
Procedure: A size bar for each set of kymographs is shown on the upper right of each set. For (A) and (C) size bar is 100 nm and for B is 200 nm. Error bars are standard deviation. […] The site of interest is labelled in the first two time panels with a white arrow. Exposure 0.5 sec with 1 second time lapse. 120 s recorded. […] Error bars are standard deviation.
Individual spots were analysed for lifetimes and behaviours.
Yeast strains used in this study are listed in Supplementary table 2 and plasmids used in Supplementary table 1. Unless stated otherwise, cells were grown with rotary shaking at 30 °C in liquid YPD medium (1% yeast extract, 2% Bacto-peptone, 2% glucose supplemented with 40 μg/ml adenine) or in synthetic medium (0.67% yeast nitrogen base, 2% glucose) with appropriate supplements. […] DNA cassettes carrying mutations for integration were transformed into KAY1801. Mutant colonies were counter-selected on minimal medium, containing 0.005% uracil and 0.1% 5’-Fluoroorotic Acid (5-FOA; Melford laboratories). Allele exchange, in growing Ura3^-, 5-FOA resistant colonies, was confirmed by PCR and sequencing.
For live-cell imaging, cells expressing tagged proteins were visualised after growing to early log phase. Analysis was carried out at room temperature (22 °C). […] Images were taken simultaneously on separate scientific complementary metal oxide semiconductor (sCMOS) cameras (30 msec exposure). Seven 250 nm sections were acquired every 0.5 sec (241 time points). The stacks were then deconvolved and processed, using SoftWorx. Protein localisation and lifetime was analysed from those projections. Fiji software was used to assemble movies and kymographs, to track and record behaviour of individual spots. Graphs show mean ± SD. […] Where appropriate data was tested for normal distribution using Graphpad Prism software, and then subjected to the appropriate test as described in the methods for each experiment type.

[3] = system: actin; experiment: TIRF assay, nucleation of actin filaments (filament number); assay type: biochemical, rabbit
Procedure: To assess how filaments generated in the presence or absence of Arp2/3 differ, a TIRF-based assay was used. Videos of representative assays are shown in Supplementary Videos 1, 2, 3 and combined in Supplementary Video 4.
as §1, with “water.” for “water. Undissolved particles were cleared by ultracentrifugation and 50 μl aliquots from the upper 90% of the supernatant were stored at −20 °C. 50 ml of 2% methyl cellulose was prepared by dissolving 1 g methylcellulose in 25 ml of Milli-Q water preheated to 65 °C, before adding 25 ml of room temperature water and rotating overnight at 4 °C.”

[4] = system: Sla1 inhibition of Las17-mediated actin polymerisation; details: with Arp2/3; ref [24]; cited from earlier work
From the text: As shown in vitro in Fig. 7D, the addition of activated Sec4 to pyrene assays does indeed rel ...

[5] = system: Las17; details: cell free extracts; ref [24]; cited from earlier work
From the text: The model predicts an extensive interaction surface highlighted in red (Fig. 7E).

[6] = system: Sla1 inhibition of Las17-mediated actin polymerisation; experiment: Pyrene actin assay, alleviation of Sla1 inhibition of Las17-mediated actin polymerisation; assay type: biochemical; details: Arp2/3-independent, activated Sec4, Las17 300 nM, Sla1 SH3 1+2+3 300 nM, 3 µM actin
Procedure: Fluorometry assays were performed as described previously. 370 μl assays used 3 μM actin as indicated unless otherwise specified. Pyrene-actin was added to 5%, mixed thoroughly, and added to the fluorometry cuvette. Polymerization salts, 10× KME (500 mM KCl, 10 mM MgCl2, 10 mM EGTA, 100 mM Tris-HCl [pH 8.0]) were mixed with fragments or G buffer to give final concentration of 0.5× KME before reading fluorescence. […] Experiments were carried out three separate times with different protein preparations and a representative graph shown.
Liposome binding assays were carried out as described previously. To prepare liposomes 11 μl of a 25 mg/ml solution of Folch fraction-1 was dried under a nitrogen stream. They were washed in chloroform, dried under nitrogen, and further washed with diethyl ether to remove all traces of chloroform before being dried again. […] The pellets were resuspended in 50 µl buffer B and samples were analysed by SDS-PAGE. The proportion of protein in each sample was determined by densitometry of the Coomassie stained gels using a BioRad GelDoc. […] To normalise the data the amount of protein in the supernatant and pellet of each sample was added together to give a value for 100%, and then the % in either the supernatant or pellet alone was calculated. […]

Substance	effect on elongation rate of actin filaments [1]	duration of co-localization of Las17-GFP and Arc15-mCherry [2]	time of Arc15-mCherry alone after Las17 disassembly [2]	time of Las17 at the site before Arc15 is recruited [2]	increase in nucleation rate compared to actin alone [3]	number of filaments ([3]; 10 minute time point, 500 nM actin, 50 nM Las17, per unit area, errors are standard deviation, actin alone 16.3 ± 2.3)	relief of Sla1-SH3 inhibition of Las17-Arp2/3-mediated actin nucleation [4]	direct binding to Las17 [5]	relief of Sla1 inhibition of Las17-mediated actin polymerisation [6]
Las17: Las17 fragment; residues not stated for TIRF; in b194 Las17 300–422; in b52 full length Las17-GFP in cells	sufficient to increase the elongation rate of actin filaments	about 15 seconds	about 4 s	about 22 s	two-three fold	42.3 ± 7.0	–	–	–
Sec4: small GTPase Sec4 (full length)	–	–	–	–	–	–	alleviated Sla1-SH3 domain inhibition of Las17-Arp2/3-mediated actin nucleation	could bind directly to Las17	does indeed relieve inhibition of Las17-mediated actin polymerisation
